The values below come from patent US12398154B2, “Azaquinazoline pan-KRas inhibitors” (Mirati Therapeutics, Inc., priority 2020, dated 2025).

SMILES strings stand for the structures. Some results are limits rather than exact numbers.

Test [1] deals with T1, KRas G13D (Homo sapiens, UniProt P01116, G13D).
T1 construct: Biotinylated KRas (corresponding to amino acids 1-169, produced at Accelegan Inc.); biotin (biotinylated); purchased Accelegan Inc
Kind of test: KRas binding assay (TR-FRET displacement). A general note: TR-FRET usually uses a lanthanide donor and a delayed reading to cut background.
Method: (§1) The ability of a compound to bind to KRas was measured using a TR-FRET displacement assay. […] After a 60-minute incubation at room temperature, the reaction was measured using a BMG LABTECH CLARIO star Plus via TR-FRET. […] The POC values were fit to a 4-parameter IC50 equation and the IC50 value reported.

Test [2] deals with KRas G12S (Homo sapiens, UniProt P01116, G12S). Kind of test: biochemical.
Chain of KRas G12S (P01116 1-169 isoform P01116-2 G12S): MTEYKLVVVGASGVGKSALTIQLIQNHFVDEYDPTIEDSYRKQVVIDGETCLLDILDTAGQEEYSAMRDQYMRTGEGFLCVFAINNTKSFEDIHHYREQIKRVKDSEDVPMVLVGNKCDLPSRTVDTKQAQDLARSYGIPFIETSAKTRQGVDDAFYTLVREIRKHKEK
Method: as §1
For test [3], the target named is KRas WT (Homo sapiens, UniProt P01116). Description: biochemical.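 Also: binding to KRas read as TR-FRET displacement after a one-hour room-temperature incubation, IC50 derived from percent-of-control values.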
Chain of KRas WT (P01116 1-169 isoform P01116-2): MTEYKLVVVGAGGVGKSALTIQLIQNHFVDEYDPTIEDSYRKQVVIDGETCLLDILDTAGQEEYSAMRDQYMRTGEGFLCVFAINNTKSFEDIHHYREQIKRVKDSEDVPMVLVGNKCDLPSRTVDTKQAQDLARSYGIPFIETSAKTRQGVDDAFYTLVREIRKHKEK
Method: as §1
The target of test [4] is KRas G12R (Homo sapiens, UniProt P01116, G12R). Kind of test: biochemical.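 Also: TR-FRET displacement assay of compound binding to KRas, read after one hour at room temperature, potency from a four-parameter fit of percent-of-control values.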
Chain of KRas G12R (P01116 1-169 isoform P01116-2 G12R): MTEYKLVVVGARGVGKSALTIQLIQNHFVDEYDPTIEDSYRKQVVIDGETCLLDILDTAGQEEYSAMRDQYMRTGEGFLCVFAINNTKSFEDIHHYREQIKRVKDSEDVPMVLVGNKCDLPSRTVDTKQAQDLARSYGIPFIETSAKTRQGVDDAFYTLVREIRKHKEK
Method: as §1
Test [5] concerns the target KRas G12V (Homo sapiens, UniProt P01116, G12V). Kind of test: biochemical.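 Also: KRas binding measured by TR-FRET displacement at room temperature, IC50 fitted from percent of control values.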
Method: as §1
The target of test [6] is KRas G12A (Homo sapiens, UniProt P01116, G12A). Kind of test: biochemical.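 Also: binding to KRas measured by TR-FRET displacement after one hour at room temperature, IC50 from a four-parameter fit of percent-of-control values.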
Chain of KRas G12A (P01116 1-169 isoform P01116-2 G12A): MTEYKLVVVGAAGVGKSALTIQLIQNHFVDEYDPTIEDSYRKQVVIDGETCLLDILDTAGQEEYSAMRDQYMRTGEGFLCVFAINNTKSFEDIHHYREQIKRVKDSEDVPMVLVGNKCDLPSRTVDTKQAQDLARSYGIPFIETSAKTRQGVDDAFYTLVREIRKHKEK
Method: as §1
For test [7], the target named is KRas G12C (Homo sapiens, UniProt P01116, G12C). Kind of test: biochemical.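 Also: binding to KRas assessed by TR-FRET displacement after one hour incubation at room temperature, potency fitted from percent-of-control values.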
Chain of KRas G12C (P01116 1-169 isoform P01116-2 G12C): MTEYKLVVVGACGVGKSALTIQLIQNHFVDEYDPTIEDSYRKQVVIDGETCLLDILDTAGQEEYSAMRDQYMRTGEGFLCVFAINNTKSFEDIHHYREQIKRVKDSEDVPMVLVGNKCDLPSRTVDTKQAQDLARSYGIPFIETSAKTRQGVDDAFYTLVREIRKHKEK
Method: as §1
For test [8], the target named is KRas G12D (Homo sapiens, UniProt P01116, G12D). Description: biochemical.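 Also: TR-FRET displacement binding assay on KRas, read after a one-hour incubation at room temperature, IC50 fitted from percent-of-control values.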
Chain of KRas G12D (P01116 1-169 isoform P01116-2 G12D): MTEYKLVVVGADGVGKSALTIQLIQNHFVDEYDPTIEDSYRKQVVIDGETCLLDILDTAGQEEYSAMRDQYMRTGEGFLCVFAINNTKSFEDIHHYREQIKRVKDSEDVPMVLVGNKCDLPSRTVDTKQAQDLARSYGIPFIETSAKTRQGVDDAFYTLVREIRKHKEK
Method: as §1
Test [9] concerns the target T2, KRas Q61H (Homo sapiens, UniProt P01116, Q61H).
T2 construct: Biotinylated KRas (corresponding to amino acids 1-169, produced at Accelegan Inc.); biotin (biotinylated); purchased Accelegan Inc
Kind of test: KRas binding assay (TR-FRET displacement).
Method: as §1

T1 sequence (P01116 1-169 isoform P01116-2 G13D): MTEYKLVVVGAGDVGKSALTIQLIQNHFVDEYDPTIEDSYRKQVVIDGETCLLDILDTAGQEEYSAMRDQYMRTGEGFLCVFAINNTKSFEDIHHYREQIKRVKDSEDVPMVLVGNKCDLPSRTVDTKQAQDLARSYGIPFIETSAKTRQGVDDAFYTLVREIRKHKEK
Chain of KRas G12V (P01116 1-169 isoform P01116-2 G12V): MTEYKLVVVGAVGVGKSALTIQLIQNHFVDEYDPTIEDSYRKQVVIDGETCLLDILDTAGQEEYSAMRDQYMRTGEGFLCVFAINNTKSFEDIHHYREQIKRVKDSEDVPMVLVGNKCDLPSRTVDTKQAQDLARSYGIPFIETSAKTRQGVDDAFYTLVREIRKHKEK
T2 sequence (P01116 1-169 isoform P01116-2 Q61H): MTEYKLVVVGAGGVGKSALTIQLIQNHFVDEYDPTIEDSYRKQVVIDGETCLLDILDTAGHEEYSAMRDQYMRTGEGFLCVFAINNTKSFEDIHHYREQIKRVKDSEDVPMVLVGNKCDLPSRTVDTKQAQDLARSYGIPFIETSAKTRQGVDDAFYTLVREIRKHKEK

For the compound `CCc1c(F)ccc2cc(O)cc(-c3ncc4c(N5CCCCC5)nc(OC[C@@H]5C[C@@H](O)CN5C)nc4c3F)c12` [Example 6], the IC50 (in general, the concentration that gives 50% inhibition) in test [1] was found to be 21 nM; in [2], 20 nM; in [3], 22 nM; in test [4], 14 nM; in test [5], 19 nM; in test [6], 16 nM. For the same compound, the IC50 in test [7] worked out at 18 nM; in test [8], 29 nM; in [9] it was 23 nM.
`CC1(O)CCCN(c2nc(OCC34CCCN3CCC4)nc3c(F)c(-c4cccc5cccc(F)c45)ncc23)C1` (stereo not shown) [Example 17, 1-(8-fluoro-7-(8-fluoronaphthalen-1-yl)-2-((hexahydro-1H-pyrrolizin-7a-yl)methoxy)pyrido[4,3-d]pyrimidin-4-yl)-3-methylpiperidin-3-ol]: the IC50 in test [1] was determined as 925 nM; in [2], 921 nM; in [3], 956 nM; in test [4], 2230 nM; in test [5] it was 1490 nM; in [6], 961 nM. Also, the IC50 worked out at 1190 nM in test [7], 746 nM in test [8] and 1860 nM in test [9].
Take `Fc1c(-c2cccc3cccc(F)c23)ncc2c(N3C[C@@H]4CC[C@@H](C4)C3)nc(OCC34CCCN3CCC4)nc12` [Example 18, 4-((1R,5S)-3-azabicyclo[3.2.1]octan-3-yl)-8-fluoro-7-(8-fluoronaphthalen-1-yl)-2-((hexahydro-1H-pyrrolizin-7a-yl)methoxy)pyrido[4,3-d]pyrimidine]: the IC50 in test [1] amounted to 9370 nM; in [2] it was 4980 nM; in [3], 6810 nM; in [4], 6780 nM; in test [5] it was 4450 nM; in test [6], 7540 nM. For the same compound, the IC50 in [7] came out at 8790 nM; in [8] it was 24000 nM; in [9] it was 13200 nM.
As to `Fc1c(-c2cccc3cccc(F)c23)ncc2c(N3CCCCC3)nc(OCC34CCCN3CCC4)nc12` [Example 21, 8-fluoro-7-(8-fluoronaphthalen-1-yl)-2-((hexahydro-1H-pyrrolizin-7a-yl)methoxy)-4-(piperidin-1-yl)pyrido[4,3-d]pyrimidine], the IC50 turned out to be 12600 nM in test [1]; 18800 nM in test [2]; 11400 nM in test [3]; 10700 nM in [4]; 9730 nM in [5]; 12600 nM in [6]. In addition, the IC50 in [7] stood at 12700 nM; in [8], 14800 nM; in [9], 19400 nM.
`O=C1CC(CNc2nc(OCC34CCCN3CCC4)nc3c(F)c(-c4cccc5cccc(F)c45)ncc23)CN1` (stereo not shown) [Example 29, 4-(((8-fluoro-7-(8-fluoronaphthalen-1-yl)-2-((hexahydro-1H-pyrrolizin-7a-yl)methoxy)pyrido[4,3-d]pyrimidin-4-yl)amino)methyl)pyrrolidin-2-one]: the IC50 in [1] worked out at 8190 nM; in test [2] it was 3110 nM; in test [3], 5840 nM; in test [4], 4380 nM; in test [5], 1960 nM; in [6] it was 6200 nM. The IC50 came to 4320 nM in test [7], 20500 nM in [8] and 13900 nM in [9].
Consider `Fc1c(-c2cccc3cccc(F)c23)ncc2c(N3CCCC(c4nc[nH]n4)C3)nc(OCC34CCCN3CCC4)nc12` (stereo not shown) [Example 30, 4-(3-(1H-1,2,4-triazol-3-yl)piperidin-1-yl)-8-fluoro-7-(8-fluoronaphthalen-1-yl)-2-((hexahydro-1H-pyrrolizin-7a-yl)methoxy)pyrido[4,3-d]pyrimidine], for which the IC50 in test [1] was determined as 2000 nM; in [2], 1450 nM; in [3] it was 1740 nM; in test [4], 1270 nM; in [5] it was 800 nM; in [6], 1760 nM. The IC50 is 1290 nM in [7], 209 nM in test [8] and 2900 nM in test [9].
For the compound `CC1(CNc2nc(OCC34CCCN3CCC4)nc3c(F)c(-c4cccc5cccc(F)c45)ncc23)CNC(=O)C1` (stereo not shown) [Example 35, 4-(((8-fluoro-7-(8-fluoronaphthalen-1-yl)-2-((hexahydro-1H-pyrrolizin-7a-yl)methoxy)pyrido[4,3-d]pyrimidin-4-yl)amino)methyl)-4-methylpyrrolidin-2-one], the IC50 in [1] turned out to be 1660 nM; in test [4], 1610 nM; in test [5], 2520 nM; in [8] it was 12100 nM; in [9], 4010 nM.
The corresponding values for `O=C1CCC2(CCCN(c3nc(OCC45CCCN4CCC5)nc4c(F)c(-c5cccc6cccc(F)c56)ncc34)C2)C1` (stereo not shown) [Example 46, 7-(8-fluoro-7-(8-fluoronaphthalen-1-yl)-2-((hexahydro-1H-pyrrolizin-7a-yl)methoxy)pyrido[4,3-d]pyrimidin-4-yl)-7-azaspiro[4.5]decan-2-one] are 8790 nM, 22500 nM, 24000 nM, 14100 nM and 18500 nM.
The matching figures for `Fc1c(-c2cccc3cccc(F)c23)ncc2c(N3CCCC4(CCC(F)C4)C3)nc(OCC34CCCN3CCC4)nc12` (stereo not shown) [Example 48, 8-fluoro-4-(2-fluoro-7-azaspiro[4.5]decan-7-yl)-7-(8-fluoronaphthalen-1-yl)-2-((hexahydro-1H-pyrrolizin-7a-yl)methoxy)pyrido[4,3-d]pyrimidine]: 16000 nM, 24100 nM, 20400 nM, 18400 nM and 19900 nM.
The matching figures for `CCc1c(F)ccc2cc(O)cc(-c3ncc4c(NCc5c[nH]c6ncccc56)nc(OC[C@@]56CCCN5C[C@H](F)C6)nc4c3F)c12` [Example 62, 4-(4-(((1H-pyrrolo[2,3-b]pyridin-3-yl)methyl)amino)-8-fluoro-2-(((2R,7aS)-2-fluorohexahydro-1H-pyrrolizin-7a-yl)methoxy)pyrido[4,3-d]pyrimidin-7-yl)-5-ethyl-6-fluoronaphthalen-2-ol]: 3 nM, at most 2 nM, at most 2 nM, 3 nM and at most 2 nM.
Turning to `CC1(O)COCCN(c2nc(OCC34CCCN3CCC4)nc3c(F)c(-c4cccc5cccc(F)c45)ncc23)C1` (stereo not shown) [Example 64, 4-(8-fluoro-7-(8-fluoronaphthalen-1-yl)-2-((hexahydro-1H-pyrrolizin-7a-yl)methoxy)pyrido[4,3-d]pyrimidin-4-yl)-6-methyl-1,4-oxazepan-6-ol], the IC50 in test [1] worked out at 1360 nM; in test [2], 1150 nM; in test [3] it was 997 nM; in [4], 2550 nM; in test [5] it was 1360 nM; in test [6], 1300 nM. Moreover, the IC50 in [7] was 1060 nM; in [8], 568 nM; in test [9] it was 1550 nM.
For `Nc1ncccc1CNc1nc(OCC23CCCN2CCC3)nc2c(F)c(-c3cccc4cccc(F)c34)ncc12` [Example 70, N-((2-aminopyridin-3-yl)methyl)-8-fluoro-7-(8-fluoronaphthalen-1-yl)-2-((hexahydro-1H-pyrrolizin-7a-yl)methoxy)pyrido[4,3-d]pyrimidin-4-amine], the IC50 in [1] came out at 11700 nM; in [2] it was 418 nM; in [3], 2860 nM; in [4] it was 215 nM; in [5], 397 nM; in [6], 403 nM. For the same compound, the IC50 stood at 224 nM in test [7], 14100 nM in test [8] and 10800 nM in [9].
In the case of `O=C1CC2(CCN(c3nc(OCC45CCCN4CCC5)nc4c(F)c(-c5cccc6cccc(F)c56)ncc34)CC2)N1` [Example 77, 7-(8-fluoro-7-(8-fluoronaphthalen-1-yl)-2-((hexahydro-1H-pyrrolizin-7a-yl)methoxy)pyrido[4,3-d]pyrimidin-4-yl)-1,7-diazaspiro[3.5]nonan-2-one], the IC50 came out at 1210 nM in test [1]; 1170 nM in test [2]; 1410 nM in test [3]; 2200 nM in [4]; 1350 nM in [5]; 1060 nM in [6]. In addition, the IC50 stood at 1640 nM in [7], 12800 nM in test [8] and 1910 nM in [9].
`CCc1c(F)ccc2cc(O)cc(-c3ncc4c(NCc5n[nH]cc5C)nc(OC[C@@]56CCCN5C[C@H](F)C6)nc4c3F)c12` [Example 161, 5-ethyl-6-fluoro-4-(8-fluoro-2-(((2R,7aS)-2-fluorohexahydro-1H-pyrrolizin-7a-yl)methoxy)-4-(((4-methyl-1H-pyrmzol-3-yl)methyl)amino)pyrido[4,3-d]pyrimidin-7-yl)naphthalen-2-ol]: the IC50 in test [1] was 16 nM; in test [2], 15 nM; in test [3], 20 nM; in [4] it was 9 nM; in test [5], 7 nM; in test [7], 7 nM. Moreover, the IC50 came to 68 nM in test [8] and 17 nM in test [9].
